Assay results published in patent publication EP0684037B1, “Deodorant compositions” (UNILEVER PLC, priority 1994, dated 1995).

Assays:
lipoxidase (EC1.13.1.13) = molecular target: T1, lipoxidase (EC1.13.1.13) (Glycine max, UniProt P08170); assay: Lipoxidase Inhibition Test (inhibition of the oxidation of linoleic acid by lipoxidase); type: biochemical; conditions: Lipoxidase Inhibiting Capacity; 0.5% by weight solution in ethanol of the material in test substrate solution; borate buffer pH 9.0; 234 nm
T1 sequence (P08170 1-839): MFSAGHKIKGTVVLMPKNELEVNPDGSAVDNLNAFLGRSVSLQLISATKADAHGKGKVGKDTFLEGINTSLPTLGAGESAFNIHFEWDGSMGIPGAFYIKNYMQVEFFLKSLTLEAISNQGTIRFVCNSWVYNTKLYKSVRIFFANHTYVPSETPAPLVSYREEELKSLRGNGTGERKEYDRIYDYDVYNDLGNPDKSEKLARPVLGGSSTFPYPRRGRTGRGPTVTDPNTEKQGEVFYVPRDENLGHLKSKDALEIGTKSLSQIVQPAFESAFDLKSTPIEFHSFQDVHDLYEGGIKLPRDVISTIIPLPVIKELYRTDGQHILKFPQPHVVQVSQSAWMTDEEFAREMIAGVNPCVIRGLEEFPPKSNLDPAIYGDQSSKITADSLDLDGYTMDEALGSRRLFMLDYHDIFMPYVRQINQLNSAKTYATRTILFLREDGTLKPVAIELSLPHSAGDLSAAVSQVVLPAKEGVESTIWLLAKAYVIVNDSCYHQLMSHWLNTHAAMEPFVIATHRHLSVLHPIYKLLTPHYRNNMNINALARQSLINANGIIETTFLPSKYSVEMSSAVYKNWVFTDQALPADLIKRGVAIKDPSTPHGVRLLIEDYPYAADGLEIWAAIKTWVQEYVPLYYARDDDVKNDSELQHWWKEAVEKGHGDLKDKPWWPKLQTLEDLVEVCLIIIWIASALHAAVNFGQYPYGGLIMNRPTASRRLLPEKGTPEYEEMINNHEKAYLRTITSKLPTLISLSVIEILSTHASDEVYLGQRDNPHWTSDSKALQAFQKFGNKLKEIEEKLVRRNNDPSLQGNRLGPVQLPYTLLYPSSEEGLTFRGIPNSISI
Protocol: In this test the capacity of a material to inhibit the oxidation of linoleic acid by lipoxidase (EC1.13.1.13) to form a hydroperoxide is measured.
Aqueous 0.2M sodium borate solution (pH 9.0) is used as buffer solution.
A control substrate solution is prepared by dissolving linoleic acid (2.0 ml) in absolute ethanol (60 ml), diluting with distilled water to 100 ml and then adding borate buffer (100 ml) and absolute ethanol (300 ml).
A test substrate solution is prepared in the same way as the control substrate solution except that for the absolute ethanol (300 ml) is substituted the same volume of a 0.5% by weight solution in ethanol of the material to be tested.
A solution of the enzyme lipoxidase in the borate buffer and having an activity within the range of from 15,000 to 40,000 units per ml is prepared.
The activity of the lipoxidase in catalysing the oxidation of linoleic acid is first assayed spectrophotometrically using the control. An automatic continuously recording spectrophotometer is used and the increase in extinction at 234 nm (the peak of hydroperoxide) is measured to follow the course of oxidation, the enzyme concentration used being such that it gives an increase in optical density (ΔOD) at 234 nm within the range of from 0.6 to 1.0 units per minute. The following ingredients are placed in two 3 ml cuvettes:
The lipoxidase solution is added to the control cuvette last and the reaction immediately followed spectrophotometrically for about 3 minutes, with recording of the increase in optical density at 234 nm as a curve on a graph.
The capacity of a material to inhibit the oxidation is then measured using a test sample containing enzyme, substrate and a deodorant material. The following ingredients are placed in two 3 ml cuvettes.
The lipoxidase solution is added to the test sample cuvette last and the course of the reaction immediately followed as before.
The lipoxidase-inhibiting capacity of the material is then calculated from the formula 100 (S1-S2)/S1, where S1 is the slope of the curve obtained with the control and S2 is the slope of the curve obtained with the test sample, and thus expressed as % inhibitor. A material that gives at least 50% inhibition in the test is hereafter referred to as having a lipoxidase-inhibiting capacity of at least 50%.

[1] = Morpholine Test (depression of the partial vapour pressure of morpholine, Raoult variance ratio); type: physicochemical; conditions: morpholine (0.25 g) and material (1 g), 37°C, headspace GC
Protocol: In this test the capacity of a material to depress the partial vapour pressure of morpholine more than that required by Raoult's Law is measured. Substances that undergo chemical reaction with morpholine, for example aldehydes, are to be regarded as excluded from the test.
Into a sample bottle of capacity 20 ml is introduced morpholine ([…]), the bottle fitted with a serum cap and then maintained at 37°C for 30 minutes for equilibrium to be reached. The gas in the headspace of the bottle is analysed by piercing the serum cap with a capillary needle through which nitrogen at 37°C is passed to increase the pressure in the bottle by a standard amount and then allowing the excess pressure to inject a sample from the headspace into gas chromatograph apparatus, which analyses it and provides a chromatographic trace curve with a peak due to morpholine, the area under which is proportional to the amount of morpholine in the sample.
The procedure is repeated under exactly the same conditions using instead of morpholine alone, morpholine (0.25 g) and the material to be tested (1 g); and also using the material (1 g) without the morpholine to check whether it gives an interference with the morpholine peak (which is unusual).
The procedure is repeated until reproducible results are obtained. The areas under the morpholine peaks are measured and any necessary correction due to interference by the material is made.
A suitable apparatus for carrying out the above procedure is a Perkin-Elmer Automatic GC Multifract F40 for Head Space Analysis. Further details of this method are described by Kolb in "CZ-Chemie-Technik", Vol 1, No 2, 87-91 (1972) and by Jentzsch et al in "Z. Anal. Chem." 236, 96-118 (1968).
The measured areas representing the morpholine concentration are proportional to the partial vapour pressure of the morpholine in the bottle headspace. If A is the area under the morpholine peak when only morpholine is tested and A' is the area due to morpholine when a material is present, the relative lowering of partial vapour pressure of morpholine by the material is given by 1-A'/A.
According to Raoult's Law, if at a given temperature the partial vapour pressure or morpholine in equilibrium with air above liquid morpholine is p, the partial vapour pressure p' exerted by morpholine in a homogeneous liquid mixture of morpholine and material at the same temperature is pM/(M+PC), where M and PC are the molar concentrations of morpholine and material.
The extend to which the behaviour of the mixture departs from Raoult's Law is given by the ratio (1-A'/A)/(87/(87+m/4)) [formula]
The above ratio, which will be referred to as the Raoult variance ratio, is calculated from the test results. Where a material is a mixture of compounds, a calculated or experimentally determined average molecular weight is used for m. A material that depresses the partial vapour pressure of morpholine by at least 10% more than that required by Raoult's Law in the Morpholine Test is one in which the Raoult variance ratio is at least 1.1.

SMILES | LIC value (lipoxidase (EC1.13.1.13)) | RVR value [1]
O=C(OCc1ccccc1)c1ccccc1O [Benzyl salicylate] | 0% | 1.58
O=c1ccc2ccccc2o1 [Coumarin] | 58% | 1.22
CCOc1cc(C=O)ccc1O [Ethyl vanillin] | 100% | 1.43
COC(=O)c1c(C)cc(O)c(C)c1O [LRG 201] | 100% | 1.21
OCCc1ccccc1 [Phenylethyl alcohol] | 22% | 1.24
CC(=O)OC1CCC(C(C)(C)C)CC1 (centres unmarked) [p-t-Butyl cyclohexyl acetate] | 54% | 0.98
CC(C=O)Cc1ccc(C(C)(C)C)cc1 (stereo not drawn) [p-t-Butyl-α-methyl hydrocinnamic aldehyde] | 74% | 
COc1ccc2ccccc2c1 [β-Naphthyl methyl ether] | 100% | 
